Source: PubChem BioAssay (NCI)
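Where inhibition never reached the appropriate level, the endpoint shown equals the highest concentration tested. Otherwise, values were interpolated linearly from a five-concentration, 48-hour dose response in 96-well plates. The concentration for 50% growth inhibition is given as GI50. TGI denotes the concentration required for complete inhibition of growth.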

Columns and labels:
Assay in all cases: growth of human tumour cells (NCI), 48 h
NCI-H226 lung = test system: NCI-H226 lung
UACC-62 melanoma = test system: UACC-62 melanoma
NCI-H522 lung = test system: NCI-H522 lung
ACHN renal = test system: ACHN renal
HOP-62 NSCLC = test system: HOP-62 NSCLC
OVCAR-5 ovarian = test system: OVCAR-5 ovarian
U251 CNS = test system: U251 CNS
OVCAR-3 ovarian = test system: OVCAR-3 ovarian
LOX IMVI melanoma = test system: LOX IMVI melanoma
SF-295 CNS = test system: SF-295 CNS
IGROV1 ovarian = test system: IGROV1 ovarian
NCI/ADR-RES ovarian = test system: NCI/ADR-RES ovarian
SK-MEL-5 melanoma = test system: SK-MEL-5 melanoma
OVCAR-4 ovarian = test system: OVCAR-4 ovarian
SN12C renal = test system: SN12C renal
SF-268 CNS = test system: SF-268 CNS
786-0 renal = test system: 786-0 renal
SK-MEL-2 melanoma = test system: SK-MEL-2 melanoma
RPMI-8226 leukemia = test system: RPMI-8226 leukemia
NCI-H23 lung = test system: NCI-H23 lung
HL-60(TB) leukemia = test system: HL-60(TB) leukemia
SW-620 colon = test system: SW-620 colon
SNB-75 CNS = test system: SNB-75 CNS
M14 melanoma = test system: M14 melanoma
SR leukemia = test system: SR leukemia
SK-OV-3 ovarian = test system: SK-OV-3 ovarian
RXF 393 renal = test system: RXF 393 renal
HCT-116 colon = test system: HCT-116 colon
HS 578T breast = test system: HS 578T breast
BT-549 breast = test system: BT-549 breast
KM12 colon = test system: KM12 colon
EKVX NSCLC = test system: EKVX NSCLC
A549 NSCLC = test system: A549 NSCLC
SK-MEL-28 melanoma = test system: SK-MEL-28 melanoma
UO-31 renal = test system: UO-31 renal
CAKI-1 renal = test system: CAKI-1 renal
DU-145 prostate = test system: DU-145 prostate
HCT-15 colon = test system: HCT-15 colon
SNB-19 CNS = test system: SNB-19 CNS
HOP-92 NSCLC = test system: HOP-92 NSCLC
NCI-H460 lung = test system: NCI-H460 lung
PC-3 prostate = test system: PC-3 prostate
MOLT-4 leukemia = test system: MOLT-4 leukemia
TK-10 renal = test system: TK-10 renal
K-562 leukemia = test system: K-562 leukemia
UACC-257 melanoma = test system: UACC-257 melanoma
COLO 205 colon = test system: COLO 205 colon
HT29 colon = test system: HT29 colon
A498 renal = test system: A498 renal
OVCAR-8 ovarian = test system: OVCAR-8 ovarian
MCF7 breast = test system: MCF7 breast
MDA-MB-231 breast = test system: MDA-MB-231 breast
SF-539 CNS = test system: SF-539 CNS
MDA-MB-435 = test system: MDA-MB-435

## COc1c(N2CCN(Cn3c(O)c(N=NC(=O)c4ccncc4)c4cc(F)ccc43)C(C)C2)c(F)cc2c(=O)c(C(=O)O)cn(C3CC3)c12 (stereo not drawn)
NCI-H226 lung
  GI50: 25.4 µM
  TGI: > 50 µM
UACC-62 melanoma
  GI50: > 50 µM
  TGI: > 50 µM
NCI-H522 lung
  GI50: > 50 µM
  TGI: > 50 µM
ACHN renal
  GI50: 12.5 µM
  TGI: > 50 µM
HOP-62 NSCLC
  GI50: 21.7 µM
  TGI: > 50 µM
OVCAR-5 ovarian
  GI50: 33.3 µM
  TGI: > 50 µM
U251 CNS
  GI50: 14.7 µM
  TGI: > 50 µM
OVCAR-3 ovarian
  GI50: 10.5 µM
  TGI: 23.8 µM
LOX IMVI melanoma
  GI50: 24.1 µM
  TGI: > 50 µM
SF-295 CNS
  GI50: 23.9 µM
  TGI: > 50 µM
IGROV1 ovarian
  GI50: 42.1 µM
  TGI: > 50 µM
NCI/ADR-RES ovarian
  GI50: 29 µM
  TGI: > 50 µM
SK-MEL-5 melanoma
  GI50: 16.6 µM
  TGI: > 50 µM
OVCAR-4 ovarian
  GI50: > 50 µM
  TGI: > 50 µM
SN12C renal
  GI50: 42.8 µM
  TGI: > 50 µM
SF-268 CNS
  GI50: 10.6 µM
  TGI: 38.2 µM
786-0 renal
  GI50: 22.3 µM
  TGI: > 50 µM
SK-MEL-2 melanoma
  GI50: > 50 µM
  TGI: > 50 µM
RPMI-8226 leukemia
  GI50: 15.1 µM
  TGI: 47.2 µM
NCI-H23 lung
  GI50: 16.7 µM
  TGI: > 50 µM
HL-60(TB) leukemia
  GI50: > 50 µM
  TGI: > 50 µM
SW-620 colon
  GI50: 13.2 µM
  TGI: > 50 µM
SNB-75 CNS
  GI50: > 50 µM
  TGI: > 50 µM
M14 melanoma
  GI50: 32.9 µM
  TGI: > 50 µM
SR leukemia
  GI50: 16.3 µM
  TGI: > 50 µM
SK-OV-3 ovarian
  GI50: 39.8 µM
  TGI: > 50 µM
RXF 393 renal
  GI50: 8.44 µM
  TGI: 20.6 µM
HCT-116 colon
  GI50: 8.24 µM
  TGI: 15 µM
HS 578T breast
  GI50: 0.294 µM
  TGI: 13.8 µM
BT-549 breast
  GI50: 37.5 µM
  TGI: > 50 µM
KM12 colon
  GI50: > 50 µM
  TGI: > 50 µM
EKVX NSCLC
  GI50: 35.2 µM
  TGI: > 50 µM
A549 NSCLC
  GI50: > 50 µM
  TGI: > 50 µM
SK-MEL-28 melanoma
  GI50: > 50 µM
  TGI: > 50 µM
UO-31 renal
  GI50: > 50 µM
  TGI: > 50 µM
CAKI-1 renal
  GI50: > 50 µM
  TGI: > 50 µM
DU-145 prostate
  GI50: 10 µM
  TGI: 32.8 µM
HCT-15 colon
  GI50: 17 µM
  TGI: > 50 µM
SNB-19 CNS
  GI50: 32.5 µM
  TGI: > 50 µM
HOP-92 NSCLC
  GI50: 22.7 µM
  TGI: > 50 µM
NCI-H460 lung
  GI50: 12.4 µM
  TGI: > 50 µM
PC-3 prostate
  GI50: > 50 µM
  TGI: > 50 µM
MOLT-4 leukemia
  GI50: 39.1 µM
  TGI: > 50 µM
TK-10 renal
  GI50: 12.5 µM
  TGI: 37.2 µM
K-562 leukemia
  GI50: > 50 µM
  TGI: > 50 µM
UACC-257 melanoma
  GI50: > 50 µM
  TGI: > 50 µM
COLO 205 colon
  GI50: > 50 µM
  TGI: > 50 µM
HT29 colon
  GI50: > 50 µM
  TGI: > 50 µM
A498 renal
  GI50: 13.3 µM
  TGI: > 50 µM
OVCAR-8 ovarian
  GI50: 34.8 µM
  TGI: > 50 µM
MCF7 breast
  GI50: 12.4 µM
  TGI: > 50 µM
MDA-MB-231 breast
  GI50: 8.31 µM
  TGI: 27.7 µM
SF-539 CNS
  GI50: 14.6 µM
  TGI: > 50 µM
MDA-MB-435
  GI50: > 50 µM
  TGI: > 50 µM
